Test results from patent publication US7230157B1, “Chemical inducible promoter used to obtain transgenic plants with a silent marker and organisms and cells and methods of using same for screening for mutations” (The Rockefeller University, priority 1998, dated 2007).

How the values were obtained:
[1] = tested on: Arabidopsis root explants; assay: Regeneration of Arabidopsis root explants transfected with XVE-CKI1; settings: MIC medium with 5 μM 17-β-estradiol
tobacco leaf disks = assay: Shoot regeneration from tobacco leaf disks transfected with XVE-CKI1; format: cell-based; settings: no externally applied plant hormones
Text: In addition to the GVG-ipt, pER8-CKI1 (XVE-CKI1) has been used to transfect tobacco leaf disks.

tobacco root cells = assay: Shoot regeneration from tobacco root cells transformed with XVE-CKI1; format: cell-based
Text: The XVE-CKI1 vector was also used to transform tobacco root cells. […] The explants were transferred to fresh MBC medium (with or without the inducer) every two weeks. […] The explants grown in the presence of inducer formed green callus. […] This experiment used the same number of root explants with inducer as without inducer. Since 65 calli formed with inducer and only 49 without inducer, overexpression of CKI1 may also increase the efficiency of callus formation.

tobacco leaf discs = assay: DEX-dependent regeneration and Luc activity of tobacco leaf discs transfected with pTA7002G/ipt/luc; format: cell-based, Nicotiana tabacum; settings: for Percentage of LUC^+ regenerants / Total number of regenerants per 28 explants: Tobacco
Description: Nicotiana tabacum seeds cultivar SR1 were surface sterilized in 30% commercial bleach containing 0.02% Tween 20 for 10 minutes and washed five times with sterile water. Plants were grown in a tissue culture room at 22° C. at 16 hour light and 8 hour dark cycles. Tobacco transformation was essentially as described by Horsch et al. (1985) and Klee et al. (1987). Leaf discs were prepared from young leaves of four week old plants and the explants were cultured for two days on MB medium (MS salts, B5 vitamins, 20 g/L sucrose, 20 mg/L acetosyringone, 0.2% phytagel, pH 5.7). […] After 20 to 40 days of culturing, regenerated shoots were excised from explants and cultured on MS medium containing IAA to induce root regeneration.
(§1) The explants were transferred to fresh medium every two weeks to maintain constant culture conditions.
(§2) The transformation cassette pTA7002G/ipt/luc (FIG. 12) contained a luc gene under the control of the CaMV 35S promoter (Millar et al., 1992; Benfey and Chua, 1990). Luc activity was measured in order to estimate the number of transgenic shoots using the video imaging system described by Michelet and Chua (1996). Measurements were integrated over 5 minutes and the corresponding background was subtracted from the images (FIGS. 9A-F). Approximately 50% of the regenerants expressed the luc gene (Table 2).
To further characterize the transformation system, we examined the effects of the duration of induction as well as the effects of exogenously applied phytohormones. Time course experiments were performed to determine whether the specificity of the induction of the ipt gene decreases over time due to overproduction and diffusion of cytokinin, which could trigger regeneration events in neighboring, non-transformed cells. […] No significant difference in the percentage of regenerants with detectable Luc activity was found over time. After 20 days, 46% of regenerants had detectable Luc activity and after both 30 and 40 days 53% of regenerants had detectable Luc activity. […] Similar results have been obtained with lettuce.
No significant difference in luciferase activity occurred at different auxin concentrations. At 1.0 mg/mL auxin 45% of regenerants had detectable Luc activity, at 1.5 mg/mL auxin 58% of regenerants had detectable Luc activity, and at 2.0 mg/mL auxin 47% of regenerants had detectable Luc activity.

lettuce leaf disks = assay: DEX-dependent regeneration and Luc activity of lettuce leaf disks transfected with pTA7002G/ipt/luc; format: cell-based, Lactuca sativa; settings: DEX 10 μM
Description: Sterilized lettuce […] (Lactuca sativa var. Great Lake #118) were germinated and the seedlings were grown as described for tobacco. Transformation of lettuce leaf discs was performed as described by Curtis et al. (1996) with the exception that cytokinin was omitted from the culture media.
as §1, §2

C[C@]12CC[C@@H]3c4ccc(O)cc4CC[C@H]3[C@@H]1CC[C@@H]2O [17-β-estradiol]
time of culture until small dark green callus appears [1]: about 10 days
time of culture until small shoots appear [1]: about 15 days
time of shoot initiation after induction (tobacco leaf disks): 25 to 35 days
time of shoot initiation after induction (tobacco root cells; 5 μM 17-β-estradiol): 40 to 50 days
white/brown calli that became green and produced shoots (tobacco root cells; MBC medium with 5 μM 17-β-estradiol): 13 out of 65

C[C@@H]1C[C@H]2[C@@H]3CCC4=CC(=O)C=C[C@]4(C)[C@@]3(F)[C@@H](O)C[C@]2(C)[C@@]1(O)C(=O)CO [DEX, dexamethasone]
regenerants with detectable Luc activity (tobacco leaf discs; 10 μM DEX, after 20 days of induction, 54 regenerants): 46%
regenerants with detectable Luc activity (tobacco leaf discs; 10 μM DEX, after 30 days of induction): 53%
regenerants with detectable Luc activity (tobacco leaf discs; 10 μM DEX, after 40 days of induction): 53%
Percentage of LUC^+ regenerants (tobacco leaf discs; DEX 0.1 μM): 29
Total number of regenerants per 28 explants (tobacco leaf discs; DEX 0.1 μM): 139
Percentage of LUC^+ regenerants (tobacco leaf discs; DEX 1 μM): 44
Total number of regenerants per 28 explants (tobacco leaf discs; DEX 1 μM): 129
Percentage of LUC^+ regenerants (tobacco leaf discs; DEX 10 μM): 49
Percentage of LUC^+ regenerants (lettuce leaf disks): 46
Total number of regenerants per 28 explants (lettuce leaf disks): 198

auxin
regenerants with detectable Luc activity (tobacco leaf discs; 10 μM DEX, 40 days): 45%
regenerants with detectable Luc activity (tobacco leaf discs; 1.5 mg/mL auxin and 10 μM DEX, 40 days): 58%
regenerants with detectable Luc activity (tobacco leaf discs; 2.0 mg/mL auxin and 10 μM DEX, 40 days): 47%
